From patent publication US20230390250A1, “MODULATION OF GLUCAGON-LIKE PEPTIDE 1 AND USES THEREOF” (priority 2020, published 2023)
Entries after “also recorded” stand apart in the source; their conditions may differ. Like-named read-outs stand apart in the source and are kept apart here.

Key:
GLUTag cells = experiment: GLP-1 secretion from cultured GLUTag cells treated with LPA and/or LPAR antagonist; format: cell-based, mouse; conditions: for effect of LPAR antagonist alone on GLP-1 levels: 10 μM antagonist alone, 2 h; for rescue of LPA-inhibited GLP-1 secretion by LPAR antagonist: 10 μM antagonist plus 2.5 μM LPA
Description: We have grown GLUTag cells in culture to test effects of various LPA species and the LPAR 1/2/3 inhibitor Ki-16425. GLUTag cells are a well characterized L-cell line derived from a mouse intestinal tumour, which have been widely used to study the regulation of GLP-1. Briefly, GLUTag cells were grown until 80-90% confluent. Complete medium, containing fetal bovine serum, was replaced with medium containing charcoal[…] dextran treated serum, which removes lipids and hormones that could interfere with testing. […] This indicates a direct inhibitory effect of LPA at physiologically relevant levels on GLP-1 secretion by L-cells, and the ability of a commercially available LPAR antagonist to prevent this.
Experimental Protocol. Briefly, GLUTag cells were grown until 70-80% confluent. Complete medium (low glucose DMEM), containing fetal bovine serum, was replaced with medium containing charcoal-dextran treated serum, which removes lipids and hormones that could interfere with testing. Cells were then treated with medium containing either DMSO as vehicle control (0.1% v/v), 2.5 μM LPA, 10 μM LPAR antagonist, or a combination of the LPA species and inhibitors. For cells treated with both LPA plus LPAR inhibitor: cells were pre-treated with LPA for 30 minutes and then 10 uM LPAR inhibitor was added to the respective wells for a further 2 hours. For cells treated with LPA only, or vehicle only, the total treatment time was 2.5 hours. For cells treated with antagonist only, the treatment time was 2 hours.

Dpp4 gene expression = Dpp4 gene expression in LPA-treated GLUTag cells (real time PCR); format: cell-based, mouse; conditions: 2.5 uM 20:4-LPA, 2 hours and up to 2 days, normalised to Gapdh
GLP-1 = experiment: Circulating GLP-1 in mice injected with LPA, with or without LPAR antagonist pre-treatment; format: in vivo; conditions: for rescue of the fall in blood GLP-1 levels caused by LPA: antagonist 30 mg/kg by gavage 10 min before 50 mg/kg 18:1-LPA i.p., serum at 30 min (Examples 6, 8); for blood GLP-1 with antagonist alone versus vehicles: antagonist 30 mg/kg by gavage, no LPA
Description: We injected mice i.p. with vehicle (10% DMSO in isotonic saline) or 50 mg/kg of 1-oleoyl-2-hydroxy-LPA. Half of the mice injected with LPA were pre-injected with 5 mg/kg Ki-16425 10 minutes prior to receiving LPA. Thirty minutes later, samples of blood were taken by cardiac puncture, and circulating active GLP-1 levels in plasma were analysed by enzyme linked immunosorbent assay.
The experimental protocol was as follows: • 1. Mice were administered an LPAR antagonist drug, either by oral gavage (for BMS986020, SARI 00842, AM966, AM095, or H2L51863030), or by i.p. injection (for Ki-16425, and LPA2-antagonistl) at the doses indicated in the table below. • 2. Control mice were administered only the vehicle (a 10% DMSO solution) given via the same route as the comparison drug was administered. • 3. Ten minutes later, mice were injected i.p. either with isotonic saline, or with 50 mg/kg LPA. • 4. Thirty minutes later, mice were euthanized by cervical dyslocation, and blood was collected from the heart for preparation of serum that was stored at −80C until it was analyzed for total GLP-1 concentration by ELISA assay using a GLP-1 enzyme immunoassay kit.

DPP4 [1] = experiment: DPP4 activity in GLUTag cells (fluorometric kit ab204722); format: cell-based, mouse; conditions: for effect of 18:1-LPA combined with LPAR antagonist on DPP4 activity in GLUTag cells: 2.5 uM 18:1-LPA 30 minutes, then 10 uM antagonist 2 hours; for effect of LPAR antagonist alone on DPP4 activity in GLUTag cells: 10 uM antagonist, 2 hours
Description: Briefly, GLUTag cells were grown to produce the recommended quantity needed for the assay according to the manufacturer's protocol (ab204722 Dipeptidyl peptidase IV Activity Assay Kit (Fluorometric)), and then the wells were treated in media containing charcoal-stripped FBS (10%), with either nothing (no treatment control), or vehicle control (0.05% DMSO), or 2.5 uM 18:1-LPA for 30 minutes, and then the inhibitors (as indicated in the graph of FIG. 17) were added to the vehicle wells and the 2.5 uM 18:1-LPA wells at 10 uM concentrations, as indicated on the graph (FIG. 17), for an additional 2 hours. Cells were then harvested according to the manufacturer's protocol, and lysed using reagents from the kit. Charcoal-stripped FBS was used to remove lipids, including LPA, from serum. Experiments were also carried out wherein the FBS was not stripped with charcoal, and the results were not different.
According to the manufacturer, dipeptidyl peptidase IV (DPP4) Activity Assay Kit (Fluorometric) (ab204722) is an assay where DPP4 cleaves a substrate to release a quenched fluorescent group, AMC (7-Amino-4-Methyl Coumarin), which can be easily detected at Ex/Em=360/460 nm. This assay is rapid, simple, sensitive, and reliable, as well as, suitable for high throughput activity screening of DPP4. This kit detects DPP4 activity as low as 3 ρU per well.

LPAR1 [2] = target: T1, LPAR1 (Homo sapiens, UniProt Q92633); conditions: cited from earlier work
Target sequence in this assay (Q92633 whole entry, species assumed): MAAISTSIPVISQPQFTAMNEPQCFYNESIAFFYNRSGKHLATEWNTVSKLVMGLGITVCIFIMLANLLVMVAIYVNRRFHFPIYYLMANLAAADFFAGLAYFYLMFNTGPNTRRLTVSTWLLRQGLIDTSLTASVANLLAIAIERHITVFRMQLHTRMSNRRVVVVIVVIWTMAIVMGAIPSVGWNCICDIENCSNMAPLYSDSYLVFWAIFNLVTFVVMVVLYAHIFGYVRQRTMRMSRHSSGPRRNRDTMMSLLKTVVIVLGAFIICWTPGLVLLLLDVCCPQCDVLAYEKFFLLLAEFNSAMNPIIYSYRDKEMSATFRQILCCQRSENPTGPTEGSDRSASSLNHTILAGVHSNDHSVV

LPAR2 [3] = target: T2, LPAR2 (Homo sapiens, UniProt Q9HBW0); conditions: cited from earlier work
LPAR3 [4] = target: T3, LPAR3 (Homo sapiens, UniProt Q9UBY5); conditions: cited from earlier work
T3 sequence (Q9UBY5 1-353): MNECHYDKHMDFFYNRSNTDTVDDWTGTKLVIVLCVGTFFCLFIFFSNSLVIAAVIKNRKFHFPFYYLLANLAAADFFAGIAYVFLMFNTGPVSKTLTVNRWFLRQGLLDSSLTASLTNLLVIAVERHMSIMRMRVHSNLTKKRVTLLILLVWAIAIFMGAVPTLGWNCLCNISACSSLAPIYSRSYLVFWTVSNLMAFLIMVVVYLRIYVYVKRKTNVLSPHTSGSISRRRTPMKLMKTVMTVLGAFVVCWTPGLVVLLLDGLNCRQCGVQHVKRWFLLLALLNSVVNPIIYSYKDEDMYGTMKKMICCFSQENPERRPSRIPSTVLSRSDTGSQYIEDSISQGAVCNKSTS

LPAR4 [5] = target: T4, LPAR4 (Homo sapiens, UniProt Q99677); conditions: cited from earlier work
T4 construct: host or cells: CHO cells

LPAR5 [6] = target: T5, LPAR5 (Homo sapiens, UniProt Q9H1C0); conditions: cited from earlier work
T5 construct: host or cells: CHO cells

recombinant mouse LPAR1 = target: T6, recombinant mouse LPAR1 (Mus musculus, UniProt P61793); conditions: CHO cell membranes; read-out: IC50, inhibition of GTP-gamma-s binding, mouse LPAR1; cited from earlier work
T6 construct: expressed in transfected cells; host or cells: CHO cell membranes

LPAR1 [7] = target: T1, LPAR1; parameters: expressed in transfected cells; host or cells: CHO cell membranes; conditions: CHO cell membranes; read-out: IC50, inhibition of GTP-gamma-s binding, human LPAR1; cited from earlier work
Target sequence in this assay (Q92633 whole entry): as the sequence (Q92633 whole entry, species assumed) above

LPAR2 [8] = target: T2, LPAR2; conditions: cited from earlier work; remark: listed apart in the source
LPAR3 [9] = target: T3, LPAR3; conditions: cited from earlier work; remark: listed apart in the source
LPAR4 [10] = target: T4, LPAR4; conditions: cited from earlier work; remark: listed apart in the source
LPAR5 [11] = target: T5, LPAR5; conditions: cited from earlier work; remark: listed apart in the source
DPP4 [12] = experiment: DPP4 activity in serum of C57BI/6J mice; format: in vivo
LPAR1 [13] = target: T1, LPAR1; parameters: expressed in transfected cells; host or cells: CHO cells; conditions: cited from earlier work
Target sequence in this assay (Q92633 whole entry): as the sequence (Q92633 whole entry, species assumed) above

T4 sequence (Q99677 whole entry, species assumed): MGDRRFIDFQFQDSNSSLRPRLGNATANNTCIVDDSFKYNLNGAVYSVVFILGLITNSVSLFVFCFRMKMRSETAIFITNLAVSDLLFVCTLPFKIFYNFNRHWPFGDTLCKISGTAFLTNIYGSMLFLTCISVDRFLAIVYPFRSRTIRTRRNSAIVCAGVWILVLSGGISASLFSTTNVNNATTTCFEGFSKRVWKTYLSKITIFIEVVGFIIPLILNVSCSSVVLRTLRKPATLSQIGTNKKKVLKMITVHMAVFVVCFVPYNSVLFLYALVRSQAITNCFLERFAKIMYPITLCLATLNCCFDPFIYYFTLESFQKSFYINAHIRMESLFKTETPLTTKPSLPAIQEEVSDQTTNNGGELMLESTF
T2 sequence (Q9HBW0 whole entry, species assumed): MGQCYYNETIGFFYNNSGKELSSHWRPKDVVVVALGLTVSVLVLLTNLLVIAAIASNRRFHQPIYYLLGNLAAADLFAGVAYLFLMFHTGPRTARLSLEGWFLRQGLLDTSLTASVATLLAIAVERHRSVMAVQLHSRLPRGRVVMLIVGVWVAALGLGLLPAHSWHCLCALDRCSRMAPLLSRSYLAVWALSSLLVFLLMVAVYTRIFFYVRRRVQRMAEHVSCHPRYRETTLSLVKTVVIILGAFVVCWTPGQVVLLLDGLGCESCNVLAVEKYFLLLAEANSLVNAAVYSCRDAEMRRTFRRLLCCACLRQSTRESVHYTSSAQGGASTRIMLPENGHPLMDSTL
T5 sequence (Q9H1C0 whole entry, species assumed): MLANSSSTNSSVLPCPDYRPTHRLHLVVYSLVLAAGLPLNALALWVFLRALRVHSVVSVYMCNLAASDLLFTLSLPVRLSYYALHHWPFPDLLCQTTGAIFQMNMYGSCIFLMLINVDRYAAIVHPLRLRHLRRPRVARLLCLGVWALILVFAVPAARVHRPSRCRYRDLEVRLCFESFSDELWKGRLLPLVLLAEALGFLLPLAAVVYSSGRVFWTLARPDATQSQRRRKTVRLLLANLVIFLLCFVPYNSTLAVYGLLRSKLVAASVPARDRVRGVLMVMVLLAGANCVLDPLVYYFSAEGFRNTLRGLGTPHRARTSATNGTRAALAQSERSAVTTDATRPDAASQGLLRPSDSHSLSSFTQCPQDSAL
T6 sequence (P61793 whole entry): as the sequence (Q92633 whole entry, species assumed) above, with I4A, I8S, P22Q, H40Y, I61V, E193D, N194H, I269V, S331N, T335N counted along it

## CCCCC/C=C\C/C=C\C/C=C\C/C=C\CCCC(=O)OCC(O)COP(=O)(O)O (stereo not shown) [20:4-LPA, 1-arachidonoyl-2-hydroxy-LPA]
GLUTag cells; 2.5 μM LPA species
  fold decrease in GLP-1 secretion / GLP-1 levels in media caused by LPA: ~5 fold
GLUTag cells; 2.5 μM LPA, 2-2.5 h
  decrease in GLP-1 secretion / level caused by LPA (fraction): over 2/3
Dpp4 gene expression
  change in Dpp4 gene expression: did not significantly change

## Cc1noc(-c2ccc(-c3ccc(CC(=O)O)cc3)cc2)c1NC(=O)O[C@H](C)c1ccccc1 [AM095]
GLUTag cells
  effect of LPAR antagonist alone on GLP-1 levels: no significant effect
  rescue of LPA-inhibited GLP-1 secretion by LPAR antagonist: complete rescue
GLP-1
  rescue of the fall in blood GLP-1 levels caused by LPA: completely abrogated; also recorded: Complete rescues
  blood GLP-1 with antagonist alone versus vehicles: not significantly different from mice treated only with the vehicles
DPP4 [1]
  effect of 18:1-LPA combined with LPAR antagonist on DPP4 activity in GLUTag cells: did not significantly affect
  effect of LPAR antagonist alone on DPP4 activity in GLUTag cells: did not significantly affect
LPAR1 [2]; read-out: IC50 for LPAR1
  IC50: ~25 nM
LPAR1 [2]; selectivity
  fold greater affinity for LPAR1 than LPAR2-5: > 400 fold
LPAR2 [3]
  IC50: ≥ 10000 nM
LPAR3 [4]
  level at which LPAR3 is antagonized: low micromolar levels
LPAR3 [4]; read-out: IC50 for LPAR3
  IC50: ≥ 10000 nM
LPAR4 [5]
  IC50: ≥ 10000 nM
LPAR5 [6]
  IC50: ≥ 10000 nM
Recombinant mouse LPAR1
  IC50: 730 nM
LPAR1 [7]
  IC50: 980 nM

## Cc1noc(-c2ccc(-c3ccc(CC(=O)O)cc3)cc2)c1NC(=O)O[C@H](C)c1ccccc1Cl [AM966]
GLUTag cells
  effect of LPAR antagonist alone on GLP-1 levels: no significant effect
  rescue of LPA-inhibited GLP-1 secretion by LPAR antagonist: complete rescue
GLP-1
  rescue of the fall in blood GLP-1 levels caused by LPA: completely abrogated; also recorded: Complete rescues; also recorded: restored to normal levels
  blood GLP-1 with antagonist alone versus vehicles: indistinguishable from mice treated only with the vehicles
DPP4 [1]
  effect of 18:1-LPA combined with LPAR antagonist on DPP4 activity in GLUTag cells: did not significantly affect
  effect of LPAR antagonist alone on DPP4 activity in GLUTag cells: did not significantly affect
LPAR3 [4]
  level at which LPAR3 is antagonized: low micromolar levels
LPAR2 [8]; calcium assay, CHO cells, read-out: IC50, LPAR2
  IC50: 1700 nM
LPAR2 [8]; read-out: IC50, LPAR2, calcium release in CHO cells
  IC50: 1700 nM
LPAR3 [9]; calcium assay, CHO cells, read-out: IC50, LPAR3
  IC50: 1600 nM
LPAR3 [9]; read-out: IC50, LPAR3, calcium release in CHO cells
  IC50: 1600 nM
LPAR4 [10]; calcium assay, CHO cells, read-out: IC50, LPAR4
  IC50: 7700 nM
LPAR4 [10]; read-out: IC50, LPAR4, calcium release in CHO cells
  IC50: 7700 nM
LPAR5 [11]; calcium assay, CHO cells, read-out: IC50, LPAR5
  IC50: 8600 nM
LPAR5 [11]; read-out: IC50, LPAR5, calcium release in CHO cells
  IC50: 8600 nM
DPP4 [12]; 30 mg/kg by gavage
  effect of antagonist on DPP4 activity in mouse serum: did not significantly affect; also recorded: lack of effect; also recorded: not significantly affected
DPP4 [12]; antagonist 30 mg/kg by gavage then 50 mg/kg 18:1-LPA
  effect of 18:1-LPA combined with antagonist on DPP4 activity in mouse serum: did not affect
LPAR1 [13]; LPA-induced calcium response, CHO cells with LPAR1
  IC50: 17 nM
LPAR1 [13]; selectivity
  fold lower affinity for LPAR2, LPAR3 (than LPAR1): ~10 fold
